TGI data for 13 compounds are collected here from PubChem BioAssay (NCI).

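Method: 48-hour compound exposure of cells in 96-well plates, five concentrations, linear interpolation of endpoints. TGI marks complete inhibition of growth.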 Where a SMILES comes first, the peptide text is derived from it. [ ]: non-standard residue; d: D form. The star is where a group is joined. X28 = COC1=CC(=O)N(C(=O)[C@@H](O*)C(C)C)[C@H]1Cc1ccccc1; NMeL = CN[C@@H](CC(C)C)C(=O)O; Hexanoyl = CCCCCC(=O)*; Boc = CC(C)(C)OC(=O)*; OBn = c1ccc(CO*)cc1; Bn = c1ccc(C*)cc1

Some test systems named below: UO-31 renal; EKVX NSCLC; SK-MEL-2 melanoma; NCI-H226 lung; SF-268 CNS; RXF 393 renal; HL-60(TB) leukemia; KM12 colon; RPMI-8226 leukemia; DU-145 prostate; MDA-N; NCI-H460 lung.
What all share (assay): growth of human tumour cells (NCI), 48 h

As to `CCC(C#N)N(Cc1cccc(CN(C(C)=O)C(C#N)CC)c1)C(C)=O` (configuration not stated), the TGI in the assay on UO-31 renal, in the assay with EKVX NSCLC, with SK-MEL-2 melanoma, in the assay on NCI-H226 lung, with SF-268 CNS and with RXF 393 renal was over 100 µM in each case. Also, the TGI in the assay on HL-60(TB) leukemia, with KM12 colon, with RPMI-8226 leukemia, in the assay on DU-145 prostate and with MDA-N was over 100 µM each time.
In the case of `CC1CCN(c2nnc(Cl)cc2C(=O)c2ccccc2)CC1`, the TGI was over 100 µM in the assay with UO-31 renal; over 100 µM with EKVX NSCLC; 40.8 µM with SK-MEL-2 melanoma; 3.04 µM in the assay on SF-268 CNS; 53.9 µM in the assay on RXF 393 renal; over 100 µM with HL-60(TB) leukemia. Also, the TGI was 52.6 µM in the assay with KM12 colon, over 100 µM in the assay with NCI-H460 lung, over 100 µM with DU-145 prostate and 53.2 µM in the assay on MDA-N.
On to `Cc1cn2c(/C=C3/C(=O)Nc4ccccc43)c(-c3ccccc3)nc2s1`, for which the TGI in the assay with UO-31 renal was 61.2 µM; in the assay with EKVX NSCLC, over 100 µM; in the assay on SK-MEL-2 melanoma it was 78.1 µM; with SF-268 CNS, over 100 µM; in the assay with RXF 393 renal, 55.2 µM; in the assay with HL-60(TB) leukemia, over 100 µM. For the same compound, the TGI in the assay on KM12 colon, with RPMI-8226 leukemia, in the assay with NCI-H460 lung, in the assay with DU-145 prostate and in the assay with MDA-N was over 100 µM throughout.
On to `COC(=O)CSc1[nH]c2nc(C)nc(Nc3ccccc3)c2c1C#N`, for which the TGI in the assay on EKVX NSCLC, in the assay with SF-268 CNS, in the assay on RXF 393 renal, in the assay on HL-60(TB) leukemia, with KM12 colon and in the assay on RPMI-8226 leukemia was over 10 µM in each case. The TGI in the assay on DU-145 prostate and with MDA-N was over 10 µM each time.
As for `CC1(C(O)c2ccccc2)CN(C(C)(C)C)C(=O)/C1=C\Sc1ccccc1` (configuration not stated), the TGI is over 100 µM in the assay on UO-31 renal; over 100 µM with EKVX NSCLC; over 100 µM in the assay with SK-MEL-2 melanoma; 43.5 µM in the assay with SF-268 CNS; over 100 µM with HL-60(TB) leukemia; over 100 µM with KM12 colon. Besides, the TGI in the assay with RPMI-8226 leukemia, in the assay on DU-145 prostate and in the assay with MDA-N was over 100 µM in each case.
Take `CCN(CC)P1(=S)Oc2ccc3ccccc3c2-c2c(ccc3ccccc23)O1`: the TGI with UO-31 renal, in the assay with EKVX NSCLC, in the assay on SK-MEL-2 melanoma, in the assay with NCI-H226 lung, with HL-60(TB) leukemia and with KM12 colon was over 100 µM in each case. In addition, the TGI in the assay with RPMI-8226 leukemia, in the assay with NCI-H460 lung, with DU-145 prostate and with MDA-N was over 100 µM each time.
For `Cc1ccc(S(=O)/C=C(\NC(=O)OCc2ccccc2)C(F)(F)F)cc1` (configuration not stated), the TGI is 73.4 µM in the assay on UO-31 renal; over 100 µM with EKVX NSCLC; over 100 µM in the assay on SK-MEL-2 melanoma; over 100 µM in the assay on NCI-H226 lung; over 100 µM in the assay on RXF 393 renal; 42 µM in the assay on HL-60(TB) leukemia. Further, the TGI in the assay with KM12 colon, in the assay on NCI-H460 lung, in the assay with DU-145 prostate and with MDA-N was over 100 µM in each case.
As for `CC(=O)OCc1ccc(-c2nc(C#N)c(N)o2)o1`, the TGI in the assay with UO-31 renal, with EKVX NSCLC, with NCI-H226 lung, in the assay with SF-268 CNS, in the assay on RXF 393 renal and in the assay on HL-60(TB) leukemia was over 10 µM each time. For the same compound, the TGI in the assay with KM12 colon, with RPMI-8226 leukemia, with NCI-H460 lung, in the assay with DU-145 prostate and with MDA-N was over 10 µM each time.
Turning to `CC(C)=NN/C(=N\S(=O)(=O)c1cc(Cl)c(Oc2ccc([N+](=O)[O-])cc2Cl)c(Cl)c1)Nc1ccc(Cl)cc1`, the TGI with UO-31 renal, in the assay with EKVX NSCLC, in the assay with SK-MEL-2 melanoma, in the assay on NCI-H226 lung, in the assay on SF-268 CNS and with HL-60(TB) leukemia was over 100 µM each time. Moreover, the TGI in the assay on KM12 colon, with RPMI-8226 leukemia, in the assay with NCI-H460 lung, in the assay on DU-145 prostate and with MDA-N was over 100 µM each time.
For `CC1OC(OC2C(CO)OC(O[C@H]3CC[C@@]4(C)C(=CC[C@H]5[C@@H]6C[C@@H]7O[C@](O)(CC[C@@H](C)COC8OC(CO)C(O)C(O)C8O)[C@@H](C)[C@@H]7[C@@]6(C)CC[C@@H]54)C3)C(OC3OC(C)C(O)C(O)C3O)C2O)C(O)C(O)C1O` (some centres not stated), the TGI is 8.39 µM in the assay on UO-31 renal; 57.1 µM in the assay with EKVX NSCLC; 12.3 µM with SK-MEL-2 melanoma; 8.33 µM with SF-268 CNS; 5.38 µM in the assay on RXF 393 renal; 4.14 µM in the assay with HL-60(TB) leukemia. For the same compound, the TGI in the assay with KM12 colon was 6.85 µM; with RPMI-8226 leukemia, 10.2 µM; in the assay with NCI-H460 lung, 4.57 µM; in the assay on DU-145 prostate, 4.97 µM; in the assay on MDA-N, 8.67 µM.
On to `CCCCCC(=O)N[C@H](C(=O)N[C@H](C(=O)N(C)[C@@H](CC(C)C)C(=O)N1CCC[C@H]1C(=O)N1CCC[C@H]1C(=O)O[C@H](C(=O)N1C(=O)C=C(OC)[C@@H]1Cc1ccccc1)C(C)C)C(C)C)C(C)C` (Hexanoyl-VV[NMeL]PP-X28), for which the TGI in the assay with EKVX NSCLC is over 100 µM; in the assay with SK-MEL-2 melanoma, over 100 µM; with NCI-H226 lung, over 100 µM; in the assay with SF-268 CNS it was over 100 µM; in the assay on RXF 393 renal it was 90.3 µM; in the assay with HL-60(TB) leukemia, 6.2 µM. Further, the TGI in the assay on KM12 colon, with RPMI-8226 leukemia, in the assay on NCI-H460 lung, in the assay with DU-145 prostate and in the assay on MDA-N was over 100 µM in each case.
Regarding `CC(C)(C)NCC(O)COc1cccc2[nH]c(C#N)cc12` (configuration not stated), the TGI with UO-31 renal, with EKVX NSCLC, in the assay with SK-MEL-2 melanoma, in the assay on NCI-H226 lung, in the assay on SF-268 CNS and in the assay on HL-60(TB) leukemia was over 100 µM in each case. Moreover, the TGI in the assay with KM12 colon, in the assay with RPMI-8226 leukemia, with DU-145 prostate and in the assay with MDA-N was over 100 µM each time.
As for `CC(C)CC(NC(=O)C(Cc1ccccc1)NC(=O)C(COCc1ccccc1)NC(=O)OC(C)(C)C)C(=O)OCc1ccccc1` (stereo not drawn) (Boc-Ser(Bn)-Phe-Leu-OBn; configuration not given here), the TGI is over 100 µM in the assay with UO-31 renal; 61.5 µM in the assay on EKVX NSCLC; over 100 µM with SK-MEL-2 melanoma; 43 µM in the assay on SF-268 CNS; 15.3 µM with HL-60(TB) leukemia; 33.2 µM in the assay with RPMI-8226 leukemia. For the same compound, the results for the TGI with NCI-H460 lung, with DU-145 prostate and in the assay with MDA-N were 26.4 µM, 25.2 µM and over 100 µM, respectively.
